Source: PMC6210072 (ACS Omega, 2018)

What was measured:
PARP2 = PARP2 (Homo sapiens, UniProt Q9UGN5); format: biochemical
ROCK2 = ROCK2 (Homo sapiens, UniProt O75116); format: biochemical; details: read-out: ROCK2
Chain of ROCK2 (O75116 whole entry): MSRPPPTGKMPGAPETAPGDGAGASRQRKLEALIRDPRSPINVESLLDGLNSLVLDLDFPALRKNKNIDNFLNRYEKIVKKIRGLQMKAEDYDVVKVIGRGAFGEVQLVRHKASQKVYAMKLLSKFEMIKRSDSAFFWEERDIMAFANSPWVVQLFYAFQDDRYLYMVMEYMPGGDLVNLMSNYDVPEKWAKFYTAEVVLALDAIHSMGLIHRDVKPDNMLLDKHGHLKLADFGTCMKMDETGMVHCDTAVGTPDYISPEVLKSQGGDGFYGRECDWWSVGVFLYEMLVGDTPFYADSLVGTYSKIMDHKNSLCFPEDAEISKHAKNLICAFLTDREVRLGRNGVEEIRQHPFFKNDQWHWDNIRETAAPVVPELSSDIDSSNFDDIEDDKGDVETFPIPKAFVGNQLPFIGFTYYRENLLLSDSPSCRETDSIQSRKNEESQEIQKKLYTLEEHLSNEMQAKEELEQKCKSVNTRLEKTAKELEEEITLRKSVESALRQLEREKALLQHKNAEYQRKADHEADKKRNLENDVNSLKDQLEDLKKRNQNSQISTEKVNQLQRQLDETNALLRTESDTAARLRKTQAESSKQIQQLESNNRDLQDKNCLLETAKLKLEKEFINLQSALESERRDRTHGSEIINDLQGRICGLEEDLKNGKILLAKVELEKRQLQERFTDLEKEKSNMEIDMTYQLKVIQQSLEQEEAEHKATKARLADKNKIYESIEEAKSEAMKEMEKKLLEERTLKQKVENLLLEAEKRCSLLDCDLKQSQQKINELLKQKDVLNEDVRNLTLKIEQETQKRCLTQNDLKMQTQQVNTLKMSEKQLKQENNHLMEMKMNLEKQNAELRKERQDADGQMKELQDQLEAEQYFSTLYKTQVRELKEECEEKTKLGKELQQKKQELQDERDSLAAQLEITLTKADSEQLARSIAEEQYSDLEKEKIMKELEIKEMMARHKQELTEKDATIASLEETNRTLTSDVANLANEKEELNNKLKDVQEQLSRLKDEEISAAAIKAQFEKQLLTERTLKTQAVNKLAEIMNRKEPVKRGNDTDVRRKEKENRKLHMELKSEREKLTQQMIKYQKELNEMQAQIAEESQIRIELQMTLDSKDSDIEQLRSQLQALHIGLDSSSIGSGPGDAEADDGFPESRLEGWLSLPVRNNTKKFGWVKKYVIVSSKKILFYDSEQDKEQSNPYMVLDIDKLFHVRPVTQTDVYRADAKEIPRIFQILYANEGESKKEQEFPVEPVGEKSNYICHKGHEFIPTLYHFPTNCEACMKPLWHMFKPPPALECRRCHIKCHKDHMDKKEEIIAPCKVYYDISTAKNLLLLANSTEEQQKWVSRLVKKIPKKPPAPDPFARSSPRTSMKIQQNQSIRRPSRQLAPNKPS

Chain of PARP2 (Q9UGN5 whole entry): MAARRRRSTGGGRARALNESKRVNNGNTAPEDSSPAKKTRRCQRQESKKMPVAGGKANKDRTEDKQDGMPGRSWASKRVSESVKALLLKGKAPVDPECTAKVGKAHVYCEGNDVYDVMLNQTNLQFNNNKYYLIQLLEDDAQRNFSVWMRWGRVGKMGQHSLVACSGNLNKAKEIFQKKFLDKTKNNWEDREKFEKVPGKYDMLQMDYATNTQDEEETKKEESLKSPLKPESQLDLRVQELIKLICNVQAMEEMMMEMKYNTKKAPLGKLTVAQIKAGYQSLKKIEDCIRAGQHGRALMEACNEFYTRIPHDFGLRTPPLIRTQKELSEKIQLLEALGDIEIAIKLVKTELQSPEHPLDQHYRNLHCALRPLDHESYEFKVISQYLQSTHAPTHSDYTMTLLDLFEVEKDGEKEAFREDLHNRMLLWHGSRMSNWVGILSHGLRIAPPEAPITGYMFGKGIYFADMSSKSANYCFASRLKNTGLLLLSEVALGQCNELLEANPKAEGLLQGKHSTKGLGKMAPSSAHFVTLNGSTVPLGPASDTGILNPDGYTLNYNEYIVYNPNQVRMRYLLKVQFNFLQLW

Row | IC50 (PARP2) | inhibition at 10 µM (ROCK2) | SMILES
1 | 35.1 µM | – | O=S(=O)(c1cccc2c(O)nccc12)N1CCCNCC1 [compound 4, hydroxyfasudil]
2 | – | 20.5 ± 0.4% | O=C(COc1cccc2c(=O)[nH]ccc12)c1ccccc1 [compound 6, UPF 1069]
